Data from US20230322767A1, “ARYL SUBSTITUTED PYRROLO-PYRIDINONES AND THERAPEUTIC USES THEREOF” (Bayer Aktiengesellschaft, priority 2020, published 2023).

How the values were obtained:
CSNK1A1 = CSNK1A1 (Homo sapiens (Human), UniProt P48729); assay: CSNK1A1 Assay 2 (ADP-Glo, 1 μM ATP); format: biochemical; conditions: median, read-out: CSNK1A1 Assay 2 IC50 [mol/l] (median)
How it was run: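 ADP-Glo luminescence, taken as ADP formed, reports activity against biotinylated phospho-peptide substrate biotin-Ahx-KRRRAL-pS-VASLPGL at 1 μM ATP.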

CSNK1D = CSNK1D (Homo sapiens (Human), UniProt P48730); assay: CSNK1D Assay (ADP-Glo, 1 μM ATP); format: biochemical; conditions: median, read-out: CSNK1D IC50 [mol/l] (median)
Experimental: CSNK1D-inhibitory activity of compounds of the present invention in presence of 1 μM adenosine-tri-phosphate (ATP) was quantified employing the CSNK1 D assay as described in the following paragraphs. In essence, the enzyme activity is measured by quantification of the adenosine-di-phosphate (ADP), which is generated as a co-product of the enzyme reaction, via the “ADP-Glo™ Kinase Assay” kit from the company Promega. This detection system works as follows: In a first step the ATP not consumed in the kinase reaction is quantitatively converted to cAMP employing an adenylate cyclase (“ADP-Glo-reagent”), then the adenylate cyclase is stopped and the ADP generated in the kinase reaction converted to ATP which generates in a luciferase-based reaction a glow-luminescence signal (“Kinase Detection Reagent”).
As substrate for the kinase reaction the biotinylated peptide Btn-Ahx-[…] (C-terminus in amide form) was used which can be purchased e.g. from the company Biosyntan (Berlin-Buch, Germany).
For the assay 50 nl of a 100 fold concentrated solution of the test compound in DMSO was pipetted into a white 1536-well microtiter plate (Greiner Bio-One, Frickenhausen, Germany), 2 μL of a solution of CSNK1D in aqueous assay buffer [50 mM HEPES pH 7.5, 10% (v/v) glycerol, 10 mM MgCl2, 50 mM NaCl, 1 mM dithiothreitol, 0.01% (w/v) bovine serum albumin, 0.01% (v/v) Triton X-100] were added and the mixture was incubated for 15 min at 22° C. to allow pre-binding of the test compounds to the enzyme before the start of the kinase reaction. […] The concentration of CSNK1D was adjusted depending of the activity of the enzyme lot and was chosen appropriate to have the assay in the linear range, a typical concentration is about 0.5 ng/μL. The reaction was stopped by the addition of 2.5 μL of “ADP-Glo-reagent” (1:1.5 fold diluted with water) and the resulting mixture was incubated at 22° C. for 1 h to convert the ATP not consumed in the kinase reaction completely […]. Subsequently 2.5 μL of the “kinase detection reagent” (1.2 fold more concentrated than recommended by the producer) were added, the resulting mixture was incubated at 22° C. for 1 h and then the luminescence measured with a suitable measurement instrument (e.g. Viewlux™ from Perkin-Elmer). The amount of emitted light was taken as a measure for the amount of ADP generated and thereby for the activity of the CSNK1D.

Chain of CSNK1A1 (P48729 whole entry): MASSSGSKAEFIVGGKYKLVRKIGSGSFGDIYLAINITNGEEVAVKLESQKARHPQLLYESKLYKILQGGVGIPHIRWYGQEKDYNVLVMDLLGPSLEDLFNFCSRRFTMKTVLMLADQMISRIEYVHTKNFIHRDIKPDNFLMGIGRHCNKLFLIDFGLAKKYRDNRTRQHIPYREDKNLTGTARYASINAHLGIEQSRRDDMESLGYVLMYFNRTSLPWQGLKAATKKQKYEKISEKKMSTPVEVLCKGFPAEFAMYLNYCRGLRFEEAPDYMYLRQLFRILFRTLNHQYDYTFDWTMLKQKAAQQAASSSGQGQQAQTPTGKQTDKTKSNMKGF
Chain of CSNK1D (P48730 whole entry): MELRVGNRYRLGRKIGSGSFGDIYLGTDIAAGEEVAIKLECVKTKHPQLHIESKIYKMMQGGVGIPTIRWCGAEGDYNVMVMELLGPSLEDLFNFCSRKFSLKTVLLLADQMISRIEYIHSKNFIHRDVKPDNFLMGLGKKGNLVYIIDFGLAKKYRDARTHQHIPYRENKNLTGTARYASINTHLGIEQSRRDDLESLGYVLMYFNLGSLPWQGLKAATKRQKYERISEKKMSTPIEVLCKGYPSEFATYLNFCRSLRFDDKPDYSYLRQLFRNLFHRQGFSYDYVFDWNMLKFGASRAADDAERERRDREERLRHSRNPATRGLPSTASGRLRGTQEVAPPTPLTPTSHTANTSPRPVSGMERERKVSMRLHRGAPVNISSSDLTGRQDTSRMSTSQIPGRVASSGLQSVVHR

Q: Which IC50 (CSNK1A1) does the source give for `CC(C(=O)Nc1cc(-c2[nH]c3c(CC(F)(F)F)cn(C)c(=O)c3c2-c2ccc(F)cc2)ccn1)c1ccc(F)cc1` (racemic) [Example 22, 2-(4-fluorophenyl)-N-{4-[3-(4-fluorophenyl)-5-methyl-4-oxo-7-(2,2,2-trifluoroethyl)-4,5-dihydro-1H-pyrrolo[3,2-c]pyridin-2-yl]pyridin-2-yl}propanamide] here?
A: The IC50 was 6.2 nM.

Q: And the IC50 (CSNK1D)?
A: Its IC50 is 3.2 nM.

Q: What does the source list for `CN1CC(CC2CC2)c2[nH]c(-c3ccnc(NC(=O)Cc4ccc(F)cc4)c3)c(-c3ccc(F)cc3)c2C1=O` (racemic) [Example 61, N-{4-[7-(cyclopropylmethyl)-3-(4-fluorophenyl)-5-methyl-4-oxo-4,5,6,7-tetrahydro-1H-pyrrolo[3,2-c]pyridin-2-yl]pyridin-2-yl}-2-(4-fluorophenyl)acetamide]?
A: IC50 (CSNK1A1): 2 nM; IC50 (CSNK1D): 1.8 nM

Q: `Cn1cc(CC(F)(F)F)c2[nH]c(-c3ccnc(NC(=O)C(CC(F)F)c4ccc(F)cc4)c3)c(-c3ccc(F)cc3)c2c1=O` (single isomer, unassigned) [Example 27, 4,4-difluoro-2-(4-fluorophenyl)-N-{4-[3-(4-fluorophenyl)-5-methyl-4-oxo-7-(2,2,2-trifluoroethyl)-4,5-dihydro-1H-pyrrolo[3,2-c]pyridin-2-yl]pyridin-2-yl}butanamide] was tested. Which IC50 (CSNK1A1) did it give?
A: The IC50 was 12 nM.

Q: What about the IC50 (CSNK1D) of the same molecule?
A: Its IC50 is 5.8 nM.

Q: Which IC50 (CSNK1A1) does the source give for `CC(C(=O)Nc1cc(-c2[nH]c3c(CC4CC4)cn(C)c(=O)c3c2-c2ccc(F)cc2)ccn1)c1ccc(F)cc1` (racemic) [Example 63, N-{4-[7-(cyclopropylmethyl)-3-(4-fluorophenyl)-5-methyl-4-oxo-4,5-dihydro-1H-pyrrolo[3,2-c]pyridin-2-yl]pyridin-2-yl}-2-(4-fluorophenyl)propanamide] here?
A: Its IC50 is 12 nM.

Q: And the IC50 (CSNK1D)?
A: The IC50 was 8 nM.

Q: `CC1CN(C)C(=O)c2c1[nH]c(-c1ccnc(NC(=O)C(CC(F)F)c3ccc(F)cc3)c1)c2-c1ccc(F)cc1` (stereo not shown) [Example 33, 4,4-difluoro-2-(4-fluorophenyl)-N-{4-[3-(4-fluorophenyl)-5,7-dimethyl-4-oxo-4,5,6,7-tetrahydro-1H-pyrrolo[3,2-c]pyridin-2-yl]pyridin-2-yl}butanamide] was tested. Which IC50 (CSNK1A1) did it give?
A: Its IC50 is 4.3 nM.

Q: And the IC50 (CSNK1D)?
A: Its IC50 is 4.3 nM.

Q: For `CC(C(=O)Nc1cc(-c2[nH]c3c(c2-c2ccccc2)C(=O)NCC3(C)C)ccn1)c1ccc(F)cc1` (single isomer, unassigned) [Example 48, N-[4-(7,7-dimethyl-4-oxo-3-phenyl-4,5,6,7-tetrahydro-1H-pyrrolo[3,2-c]pyridin-2-yl)pyridin-2-yl]-2-(4-fluorophenyl)propanamide], which IC50 (CSNK1A1) is on record?
A: The IC50 was 1.8 nM.

Q: And the IC50 (CSNK1D)?
A: Its IC50 is 2.9 nM.

Q: Which IC50 (CSNK1A1) does the source give for `CC(C(=O)Nc1cc(-c2[nH]c3c(c2-c2ccccc2)C(=O)NCC3(C)C)ccn1)c1ccc(F)cc1` (racemic) [Example 46, N-[4-(7,7-dimethyl-4-oxo-3-phenyl-4,5,6,7-tetrahydro-1H-pyrrolo[3,2-c]pyridin-2-yl)pyridin-2-yl]-2-(4-fluorophenyl)propanamide] here?
A: The IC50 was 2.7 nM.

Q: And the IC50 (CSNK1D)?
A: Its IC50 is 3.3 nM.

Q: Which IC50 (CSNK1A1) does the source give for `Cc1cn(C)c(=O)c2c(-c3ccc(F)cc3)c(-c3ccnc(NC(=O)C(C)c4ccc(F)cc4)c3)[nH]c12` (single isomer, unassigned; (+)) [Example 32, (+)-2-(4-fluorophenyl)-N-{4-[3-(4-fluorophenyl)-5,7-dimethyl-4-oxo-4,5-dihydro-1H-pyrrolo[3,2-c]pyridin-2-yl]pyridin-2-yl}propanamide] here?
A: The IC50 was 4.4 nM.

Q: What about the IC50 (CSNK1D) of the same molecule?
A: Its IC50 is 3.6 nM.

Q: With `CC(C(=O)Nc1cc(-c2[nH]c3c(c2-c2ccccc2)C(=O)N(C)C2(CCC2)C3)ccn1)c1ccc(F)cc1` (single isomer, unassigned; (+)) [Example 54, (+)-2-(4-fluorophenyl)-N-[4-(5′-methyl-4′-oxo-3′-phenyl-1′,4′,5′,7′-tetrahydrospiro[cyclobutane-1,6′-pyrrolo[3,2-c]pyridin]-2′-yl)pyridin-2-yl]propanamide] as the molecule, how does the IC50 (CSNK1A1) read?
A: Its IC50 is 1.6 nM.

Q: And the IC50 (CSNK1D)?
A: Its IC50 is 3.6 nM.

Q: With `CC(C(=O)Nc1cc(-c2[nH]c3c(CC(F)(F)F)cn(C)c(=O)c3c2-c2ccc(F)cc2)ccn1)c1ccc(F)cc1` (single isomer, unassigned; (+)) [Example 24, (+)-2-(4-fluorophenyl)-N-{4-[3-(4-fluorophenyl)-5-methyl-4-oxo-7-(2,2,2-trifluoroethyl)-4,5-dihydro-1H-pyrrolo[3,2-c]pyridin-2-yl]pyridin-2-yl}propanamide] as the molecule, how does the IC50 (CSNK1A1) read?
A: The IC50 was 4.5 nM.

Q: And the IC50 (CSNK1D)?
A: The IC50 was 4 nM.

Q: Which IC50 (CSNK1A1) does the source give for `CN1C(=O)c2c([nH]c(-c3ccnc(NC(=O)C(CC(F)F)c4ccc(F)cc4)c3)c2-c2ccccc2)CC12CCC2` (single isomer, unassigned; (+)) [Example 51, (+)-4,4-difluoro-2-(4-fluorophenyl)-N-[4-(5′-methyl-4′-oxo-3′-phenyl-1′,4′,5′,7′-tetrahydrospiro-[cyclobutane-1,6′-pyrrolo[3,2-c]pyridin]-2′-yl)pyridin-2-yl]butanamide] here?
A: Its IC50 is 1.8 nM.

Q: And the IC50 (CSNK1D)?
A: Its IC50 is 2.4 nM.

Q: `Cn1cc(CC(F)(F)F)c2[nH]c(-c3ccnc(NC(=O)C(CC(F)F)c4ccc(F)cc4)c3)c(-c3ccc(F)cc3)c2c1=O` (racemic) [Example 26, 4,4-difluoro-2-(4-fluorophenyl)-N-{4-[3-(4-fluorophenyl)-5-methyl-4-oxo-7-(2,2,2-trifluoroethyl)-4,5-dihydro-1H-pyrrolo[3,2-c]pyridin-2-yl]pyridin-2-yl}butanamide] was tested. Which IC50 (CSNK1A1) did it give?
A: Its IC50 is 11 nM.

Q: And the IC50 (CSNK1D)?
A: The IC50 was 7.1 nM.

Q: `CN1C(=O)c2c([nH]c(-c3ccnc(NC(=O)C(CC(F)F)c4ccc(F)cc4)c3)c2-c2ccccc2)CC12CCC2` (racemic) [Example 49, 4,4-difluoro-2-(4-fluorophenyl)-N-[4-(5′-methyl-4′-oxo-3′-phenyl-1′,4′,5′,7′-tetrahydrospiro[cyclobutane-1,6′-pyrrolo[3,2-c]pyridin]-2′-yl)pyridin-2-yl]butanamide] was tested. Which IC50 (CSNK1A1) did it give?
A: The IC50 was 4.6 nM.

Q: And the IC50 (CSNK1D)?
A: The IC50 was 4.5 nM.

Q: Which IC50 (CSNK1A1) does the source give for `Cc1cn(C)c(=O)c2c(-c3ccc(F)cc3)c(-c3ccnc(NC(=O)C(CC(F)F)c4ccc(F)cc4)c3)[nH]c12` (single isomer, unassigned; (-)) [Example 35, (−)-4,4-difluoro-2-(4-fluorophenyl)-N-{4-[3-(4-fluorophenyl)-5,7-dimethyl-4-oxo-4,5-dihydro-1H-pyrrolo[3,2-c]pyridin-2-yl]pyridin-2-yl}butanamide] here?
A: Its IC50 is 66 nM.

Q: And the IC50 (CSNK1D)?
A: The IC50 was 22 nM.

Q: What does the source list for `Cn1cc(CC(F)(F)F)c2[nH]c(-c3ccnc(NC(=O)C(CC(F)F)c4ccc(F)cc4)c3)c(-c3ccccc3)c2c1=O` (racemic) [Example 18, 4,4-difluoro-2-(4-fluorophenyl)-N-{4-[5-methyl-4-oxo-3-phenyl-7-(2,2,2-trifluoroethyl)-4,5-dihydro-1H-pyrrolo[3,2-c]pyridin-2-yl]pyridin-2-yl}butanamide]?
A: IC50 (CSNK1A1): 5.9 nM; IC50 (CSNK1D): 3.1 nM

Q: With `CC1(C)CNC(=O)c2c1[nH]c(-c1ccnc(NC(=O)C(CC(F)F)c3ccc(F)cc3)c1)c2-c1ccccc1` (racemic) [Example 43, N-[4-(7,7-dimethyl-4-oxo-3-phenyl-4,5,6,7-tetrahydro-1H-pyrrolo[3,2-c]pyridin-2-yl)pyridin-2-yl]-4,4-difluoro-2-(4-fluorophenyl)butanamide] as the molecule, how does the IC50 (CSNK1A1) read?
A: Its IC50 is 2.6 nM.

Q: And the IC50 (CSNK1D)?
A: The IC50 was 2.7 nM.

Q: Which IC50 (CSNK1A1) does the source give for `CC1(C)CNC(=O)c2c1[nH]c(-c1ccnc(NC(=O)Cc3ccc(F)cc3)c1)c2-c1ccccc1` [Example 42, N-[4-(7,7-dimethyl-4-oxo-3-phenyl-4,5,6,7-tetrahydro-1H-pyrrolo[3,2-c]pyridin-2-yl)pyridin-2-yl]-2-(4-fluorophenyl)acetamide] here?
A: The IC50 was 1.2 nM.

Q: What about the IC50 (CSNK1D) of the same molecule?
A: The IC50 was 2.1 nM.
